In patent US20030153618A1, “Treatment and prevention of herpes simplex infections” (priority 1999, published 2003):

System: HSV, Type II
Assay: Direct plaque-forming unit (PFU) count in BSC cells in defined media with set lysine (or derivative):arginine ratio
Assay type: cell-based
Details: average of three tests
Protocol: Absorbed virons were absorbed in susceptible cells in chemically defined media and the number of plaques made were counted. (See Davis, B. D., et al., Microbiology, 2nd Ed., Harper & Row, 1973, Part V, and sources cited therein for procedural details and discussion of the plaque method.)
The cell line chosen was green monkey kidney cells (BSC) that have been passed greater than 41 times. […] The virons were added to a confluent lawn of BSC cells and allowed to absorb at 25° C. for one hour. The unabsorbed virons and the media were removed by washing three times in PBS. […] The control media contained a lysine/arginine ratio of 1:1. The plaques were counted when easily readable. Flasks are done in triplicate.

Structure (SMILES): NCCCCCC(N)C(=O)O (centres unmarked) [drawing 16]
- P.F.U. Count (Compound Ratio to Arginine 10:1): <5
- P.F.U. Count (Compound Ratio to Arginine 100:1): <5
